One test addresses T1, muscarinic M1 receptors (Rattus norvegicus, UniProt P08482).
T1 construct: a mixture of a membrane specimen from the cerebral cortex; from tissue; host or cells: rat cerebral cortex membranes (SD rat)
T1 sequence (P08482 1-460): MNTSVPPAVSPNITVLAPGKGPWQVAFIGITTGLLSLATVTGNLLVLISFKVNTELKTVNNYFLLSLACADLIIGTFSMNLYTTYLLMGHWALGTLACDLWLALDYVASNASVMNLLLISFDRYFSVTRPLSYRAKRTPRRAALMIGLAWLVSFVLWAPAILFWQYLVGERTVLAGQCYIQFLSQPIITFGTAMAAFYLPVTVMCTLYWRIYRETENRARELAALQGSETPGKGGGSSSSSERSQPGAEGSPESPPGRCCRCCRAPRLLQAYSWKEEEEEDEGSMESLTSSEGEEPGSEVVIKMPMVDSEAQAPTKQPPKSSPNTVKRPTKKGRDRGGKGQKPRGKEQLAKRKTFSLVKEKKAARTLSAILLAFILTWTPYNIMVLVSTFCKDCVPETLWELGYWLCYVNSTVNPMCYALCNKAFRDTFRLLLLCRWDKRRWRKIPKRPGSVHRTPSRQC
The test can be described thus: Inhibition of binding to muscarinic M1 receptors ([3H]-telenzepine, cerebral cortex membrane). As for the experimental part: In these tests, their inhibitory and antagonistic effects were expressed in terms of the dissociation constant (Ki) of each test compound which was calculated from its concentration (IC50 ) causing a 50% inhibition of the binding of a labeled ligand to muscarinic receptors. As the labeled ligand, [^3 H]-telenzepine was used for the muscarinic M1 receptors and [^3 H]-N-methylscopolamine for the muscarinic M2 and M3 receptors.
A male SD strain rat (purchased from Nippon Charles River Co., Ltd.), weighing about 250-350 g, was sacrificed, and the cerebral cortex, heart and lacrimal glands were excised. Using a Polytron (setting 5), each organ was homogenized in 5 volumes of an ice-cold buffer solution (pH 7.4) containing 50 mM tris-HCl, 5 mM magnesium chloride, 1 mM trisodium ethylenediaminetetraacetate and 20% sucrose. The resulting homogenate was centrifuged at 3,000×g at 4° C. for 15 minutes, and the supernatant was filtered through gauze and ultracentrifuged at 100,000×g at 4° C. for 45 minutes. The resulting precipitate was suspended in an ice-cold buffer solution (pH 7.4) containing 50 mM tris-HCl and 5 mM magnesium chloride (hereinafter referred briefly to as "tris buffer") and ultracentrifuged at 100,000×g at 4° C. for 45 minutes. The resulting precipitate was suspended in tris buffer so as to give a concentration of 50 mg/ml and stored at -80° C. till use. The membrane specimens so prepared were thawed prior to use and submitted to tests for the inhibition of binding to muscarinic receptors.
2) Tests for the inhibition of binding to the muscarinic M1 receptors
These tests were performed according to a modification of the method of Hargreaves et al. [Br. J. Pharmacol., Vol. 107, pp. 494-501 (1992)]. Specifically, a mixture of a membrane specimen from the cerebral cortex, 1 nM [^3 H]-telenzepine (85 Ci/mmol; manufactured by New England Nuclear) and a test compound in 0.5 ml of tris buffer was incubated at room temperature (about 20°-25° C.) for 120 minutes. After the addition of 0.5 ml of ice-cold tris buffer, the mixture was filtered by suction through a glass filter (Packard Unifilter Plate GF/C). Then, the filter was washed four times with 1 ml portions of ice-cold tris buffer and dried at 50° C. for an hour. After the addition of a scintillator (Packard Microscinti 0), the radioactivity of [^3 H]-telenzepine adsorbed to the filter was measured with a microplate scintillation counter (Packard Topcount). The nonspecific binding of [^3 H]-telenzepine to receptors was determined by the addition of […] pirenzepine. According to the method of Cheng and Prusoff [Biochem. Pharmacol., Vol. 22, pp. 3099-3108 (1973)], the affinity of the test compound (i.e., a compound in accordance with the present invention) for the muscarinic M1 receptors was determined in terms of its dissociation constant (Ki) calculated from the concentration (IC50) of the test compound which was required to cause a 50% inhibition of the binding of [^3 H]-telenzepine used as the labeled ligand.

The subject of test [1] is M1 receptors (vas deferens). The experiment in a line: Antagonism against M1 receptors in an isolated rabbit vas deferens. The following applies: in vitro, agonist McN A-343, 10 min. How it is done: 1) Tests for antagonism against the M1 receptors in an isolated rabbit vas deferens
These tests were performed according to an ordinary method. A male Japanese albino rabbit (weighing bout 3 kg) was killed by exsanguination from a femoral artery under anesthesia with pentobarbital, and the vasa deferentia were excised. Portions (1 cm long) thereof adjacent to the prostate were used as vas deferens preparations. A preparation was longitudinally suspended in a Magnus tube filled with 20 ml of Krebs-Henseleit nutrient solution [gassed with 95% O2 -5% CO2 and kept at 32° C.; containing […] yohimbine (a2 antagonist)] with an initial tension of 1.0 g. The tension of the preparation was recorded isometrically. After the preparation was equilibrated for 30 minutes, electrical stimuli (0.5 ms, 30 V) were applied thereto by means of a bipolar electrode to induce contractions at intervals of 20 seconds. […] Responses to McN A-343 were expressed as percentages based on the amount of contraction before administration of McN A-343. The antagonistic potency (KB value) of the test compound was determined from the degree of shift of the dose-response curve obtained by treatment with the test compound.

The next test addresses muscarinic M3 receptor (Rattus norvegicus, UniProt P08483). The experiment in a line: Intestinal propulsion in rats (charcoal meal). The format is in vivo. Details: from tissue. To be noted: i.v., 15% inhibition of intestinal propulsion. How it is done:
Tests for antagonism against muscarinic M3 receptor (in vivo)
5) Tests for intestinal propulsion in rats
Five- to seven-weeks-old male rats of the Sprague-Dawley strain were fasted overnight. A test compound was administered intravenously to the animals. Five minutes later, 1 ml per animal of a 5% charcoal suspension was administered orally. Thirty minutes after administration of the charcoal meal, the rats were sacrificed by decapitation, and the gastrointestinal tract was removed. The distance from the pylorus to the point of arrival of the charcoal meal was measured and the transportation rate was calculated. The ID15 value was calculated from the dose-response curve using probit analysis and defined as the drug dose that inhibited intestinal propulsion in the control group by 15%.

Each structure is given as a SMILES string.

We go through 1 molecule from patent publication US5750540A, “1,4-di-substituted piperidine derivatives” (Banyu Pharmaceutical Co., Ltd., priority 1995, dated 1998).

muscarinic M3 receptor, sequence (P08483 whole entry): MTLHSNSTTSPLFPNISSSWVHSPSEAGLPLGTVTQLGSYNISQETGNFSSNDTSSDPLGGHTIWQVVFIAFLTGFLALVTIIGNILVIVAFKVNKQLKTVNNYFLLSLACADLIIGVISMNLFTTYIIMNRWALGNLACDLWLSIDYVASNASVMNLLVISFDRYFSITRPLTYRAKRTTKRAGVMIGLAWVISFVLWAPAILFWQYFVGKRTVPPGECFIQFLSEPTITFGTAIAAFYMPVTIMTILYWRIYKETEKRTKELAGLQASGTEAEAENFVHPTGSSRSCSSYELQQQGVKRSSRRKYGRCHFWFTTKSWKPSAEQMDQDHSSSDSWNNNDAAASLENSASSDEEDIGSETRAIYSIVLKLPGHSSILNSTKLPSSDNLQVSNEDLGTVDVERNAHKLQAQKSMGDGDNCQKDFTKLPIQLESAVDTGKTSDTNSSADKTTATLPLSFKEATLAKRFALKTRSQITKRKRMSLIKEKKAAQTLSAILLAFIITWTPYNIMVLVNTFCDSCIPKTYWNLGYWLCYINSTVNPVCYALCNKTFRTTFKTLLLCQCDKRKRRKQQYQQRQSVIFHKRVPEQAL

With `CC(C)=CCCN1CCC(NC(=O)C(O)(c2ccccc2)C2CCC2)CC1` (stereo not drawn) [Example 1, N-[1-(4-methyl-3-pentenyl)-piperidin-4-yl]-2-cyclobutyl-2-hydroxy-2-phenylacetamide], the affinity at muscarinic M1 receptors, expressed as Ki, was 45 nM. For the same molecule, the Kb in test [1] came to 120 nM. At muscarinic M3 receptor, the “Enterokinesis ID15” value came to 0.67 mg/kg i.v.
